Data as given in patent US11051515B2, “3-acyl-benzamides and their use as herbicides” (Bayer Aktiengesellschaft, priority 2017, dated 2021).

Assays:
ALOMY = test: Pre-emergence action against ALOMY; type: in vivo, Alopecurus myosuroides; details: dosage 320 g/ha, pre-emergence, scored visually after 3 weeks vs untreated controls, 100% = plants have died, 0% = like control plants
Outline: (§1)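 Seeds sown in sandy loam in wood-fiber pots and covered with soil. Greenhouse growth; visual damage scored after 3 weeks versus untreated controls (100% = dead, 0% = like control).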

AVEFA [1] = test: Pre-emergence action against AVEFA; type: in vivo, Avena fatua; details: dosage 320 g/ha, scored visually after 3 weeks vs untreated controls
Outline: as §1

CYPES [2] = test: Pre-emergence action against CYPES; type: in vivo, Cyperus esculentus; details: pre-emergence, dosage 320 g/ha, scored visually after 3 weeks vs untreated controls
Outline: as §1

ECHCG [3] = test: Pre-emergence action against ECHCG; type: in vivo, Echinochloa crus-galli; details: pre-emergence, dosage 320 g/ha, scored visually after 3 weeks vs untreated controls
Outline: as §1

LOLRI = test: Pre-emergence action against LOLRI; type: in vivo, Lolium rigidum; details: dosage 320 g/ha, scored visually after 3 weeks vs untreated controls
Excerpt: (§2) Seeds of monocotyledonous and dicotyledonous weed plants and crop plants are laid out in sandy loam soil in wood-fiber pots and covered with soil. The compounds of the invention, formulated in the form of wettable powders (WP) or as emulsion concentrates (EC), are then applied to the surface of the covering soil in the form of an aqueous suspension or emulsion at a water application rate equating to […], with addition of 0.2% wetting agent. After the treatment, the pots are placed in a greenhouse and kept under good growth conditions for the trial plants. The damage to the test plants is scored visually after a test period of 3 weeks by comparison with untreated controls (herbicidal activity in percent (%): 100% activity=the plants have died, 0% activity=like control plants).

SETVI [4] = test: Pre-emergence action against SETVI; type: in vivo, Setaria viridis; details: pre-emergence, dosage 320 g/ha, scored visually after 3 weeks vs untreated controls
Outline: as §1

ABUTH [5] = test: Pre-emergence action against ABUTH; type: in vivo, Abutilon theophrasti; details: pre-emergence, dosage 320 g/ha, scored visually after 3 weeks vs untreated controls
Outline: as §1

AMARE [6] = test: Pre-emergence action against AMARE; type: in vivo, Amaranthus retroflexus; details: pre-emergence, dosage 320 g/ha, scored visually after 3 weeks vs untreated controls
Outline: as §1

MATIN [7] = test: Pre-emergence action against MATIN; type: in vivo, Matricaria inodora; details: Dosage 320 g/ha, pre-emergence
Outline: as §1

PHBPU [8] = test: Pre-emergence action against PHBPU; type: in vivo, Pharbitis purpurea; details: Dosage 320 g/ha, pre-emergence
Outline: as §1

STEME [9] = test: Pre-emergence action against STEME; type: in vivo, Stellaria media; details: Dosage 320 g/ha, pre-emergence
Outline: as §1

VIOTR [10] = test: Pre-emergence action against VIOTR; type: in vivo, Viola tricolor; details: Dosage 320 g/ha, pre-emergence
Outline: as §1

VERPE [11] = test: Pre-emergence action against VERPE; type: in vivo, Veronica persica; details: Dosage 320 g/ha, pre-emergence
Outline: as §1

HORMU = test: Pre-emergence action against HORMU; type: in vivo, Hordeum murinum; details: Dosage 320 g/ha
Excerpt: as §2

ECHCG [12] = test: Post-emergence action against ECHCG; type: in vivo, Echinochloa crus-galli; details: post-emergence, dosage 80 g/ha, visual assessment about 3 weeks after treatment vs untreated controls
Outline: (§3)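 Weeds grown in sandy loam in greenhouse, treated at one-leaf stage (2–3 weeks after sowing) with WP or EC formulations sprayed as aqueous suspension/emulsion at 600 to […] water with 0.2% wetting agent. Visual rating after about 3 weeks versus untreated controls, as % herbicidal action (100% = plants dead, 0% = like control).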

ABUTH [13] = test: Post-emergence action against ABUTH; type: in vivo, Abutilon theophrasti; details: post-emergence, dosage 80 g/ha, visual assessment about 3 weeks after treatment vs untreated controls
Outline: as §3

AMARE [14] = test: Post-emergence action against AMARE; type: in vivo, Amaranthus retroflexus; details: post-emergence, dosage 80 g/ha, visual assessment about 3 weeks after treatment vs untreated controls
Outline: as §3

MATIN [15] = test: Post-emergence action against MATIN; type: in vivo, Matricaria inodora; details: post-emergence, dosage 80 g/ha, visual assessment about 3 weeks after treatment vs untreated controls
Outline: as §3

PHBPU [16] = test: Post-emergence action against PHBPU; type: in vivo, Pharbitis purpurea; details: post-emergence, dosage 80 g/ha
Outline: as §3

STEME [17] = test: Post-emergence action against STEME; type: in vivo, Stellaria media; details: post-emergence, dosage 80 g/ha
Outline: as §3

VIOTR [18] = test: Post-emergence action against VIOTR; type: in vivo, Viola tricolor; details: post-emergence, dosage 80 g/ha
Outline: as §3

VERPE [19] = test: Post-emergence action against VERPE; type: in vivo, Veronica persica; details: Veronica persica, 504 h, dosage 80 g/ha
Outline: as §3

AVEFA [20] = test: Post-emergence action against AVEFA; type: in vivo, Avena fatua; details: post-emergence, dosage 80 g/ha, visual assessment about 3 weeks after treatment vs untreated controls
Outline: as §3

SETVI [21] = test: Post-emergence action against SETVI; type: in vivo, Setaria viridis; details: post-emergence, dosage 80 g/ha, visual assessment about 3 weeks after treatment vs untreated controls
Outline: as §3

POLCO [22] = test: Pre-emergence action against POLCO; type: in vivo, Polygonum convolvulus; details: Dosage 320 g/ha, pre-emergence
Outline: as §1

CYPES [23] = test: Post-emergence action against CYPES; type: in vivo, Cyperus esculentus; details: post-emergence, dosage 80 g/ha, visual assessment about 3 weeks after treatment vs untreated controls
Outline: as §3

POLCO [24] = test: Post-emergence action against POLCO; type: in vivo, Polygonum convolvulus; details: post-emergence, dosage 80 g/ha
Outline: as §3

CCCC(=O)c1c(C(F)(F)F)ccc(C(=O)Nc2nnnn2C)c1Cl [1-139]
100%: pest or weed control at 320 g/ha (ALOMY; Alopecurus myosuroides, 504 h, read-out: Pre-emergence action against ALOMY (herbicidal activity in percent)) | pest or weed control at 320 g/ha (AVEFA [1]; Avena fatua, 504 h, read-out: Pre-emergence action against AVEFA (herbicidal activity)) | pest or weed control at 320 g/ha (ECHCG [3]; Echinochloa crus-galli, 504 h, read-out: Pre-emergence action against ECHCG (herbicidal activity)) | pest or weed control at 320 g/ha (LOLRI; Lolium rigidum, 504 h, read-out: Pre-emergence action against LOLRI (herbicidal activity)) | pest or weed control at 320 g/ha (SETVI [4]; Setaria viridis, 504 h, read-out: SETVI (Table B8, pre-emergence herbicidal activity)) | pest or weed control at 320 g/ha (ABUTH [5]; Abutilon theophrasti, 504 h, read-out: Pre-emergence action against ABUTH (herbicidal activity)) | pest or weed control at 320 g/ha (AMARE [6]; Amaranthus retroflexus, 504 h, read-out: Pre-emergence action against AMARE (herbicidal activity)) | pest or weed control at 320 g/ha (MATIN [7]; Tripleurospermum inodorum, 504 h) | pest or weed control at 320 g/ha (PHBPU [8]; Ipomoea purpurea, 504 h) | pest or weed control at 320 g/ha (STEME [9]; Stellaria media, 504 h) | pest or weed control at 320 g/ha (VIOTR [10]; Viola tricolor, 504 h) | pest or weed control at 320 g/ha (VERPE [11]; Veronica persica, 504 h) | pest or weed control at 80 g/ha (AMARE [14]; Amaranthus retroflexus, 504 h, read-out: Post-emergence action against AMARE (herbicidal action in percent)) | pest or weed control at 80 g/ha (PHBPU [16]; Ipomoea purpurea, 504 h) | pest or weed control at 80 g/ha (STEME [17]; Stellaria media, 504 h) | pest or weed control at 80 g/ha (VIOTR [18]; Viola tricolor, 504 h)
90%: pest or weed control at 320 g/ha (CYPES [2]; Cyperus esculentus, 504 h, read-out: Pre-emergence action against CYPES (herbicidal activity)) | pest or weed control at 320 g/ha (HORMU; Hordeum murinum, 504 h) | pest or weed control at 80 g/ha (ECHCG [12]; Echinochloa crus-galli, 504 h, read-out: Post-emergence action against ECHCG (herbicidal action in percent)) | pest or weed control at 80 g/ha (ABUTH [13]; Abutilon theophrasti, 504 h, read-out: Post-emergence action against ABUTH (herbicidal action in percent)) | pest or weed control at 80 g/ha (MATIN [15]; Tripleurospermum inodorum, 504 h, read-out: Post-emergence action against MATIN (herbicidal action in percent))
80%: pest or weed control at 80 g/ha (VERPE [19])

Cn1nnnc1NC(=O)c1ccc(C(F)(F)F)c(C(=O)C2(C)CC2)c1Cl [1-147]
100%: Pre-emergence action against ALOMY (herbicidal activity in percent) (ALOMY) | Pre-emergence action against CYPES (herbicidal activity) (CYPES [2]) | Pre-emergence action against ECHCG (herbicidal activity) (ECHCG [3]) | SETVI (Table B8, pre-emergence herbicidal activity) (SETVI [4]) | Pre-emergence action against ABUTH (herbicidal activity) (ABUTH [5]) | Pre-emergence action against AMARE (herbicidal activity) (AMARE [6]) | Pre-emergence action against MATIN (MATIN [7]) | Pre-emergence action against STEME (STEME [9]) | Pre-emergence action against VIOTR (VIOTR [10]) | Pre-emergence action against VERPE (VERPE [11]) | Post-emergence action against AVEFA (herbicidal action in percent) (AVEFA [20]) | Post-emergence action against ECHCG (herbicidal action in percent) (ECHCG [12]) | Post-emergence action against SETVI (herbicidal action in percent) (SETVI [21]) | Post-emergence action against ABUTH (herbicidal action in percent) (ABUTH [13]) | Post-emergence action against AMARE (herbicidal action in percent) (AMARE [14])
80: Post-emergence action against PHBPU (PHBPU [16]) | Post-emergence action against STEME (STEME [17])
90%: Pre-emergence action against AVEFA (herbicidal activity) (AVEFA [1]) | Pre-emergence action against LOLRI (herbicidal activity) (LOLRI) | Pre-emergence action against HORMU (HORMU) | Post-emergence action against MATIN (herbicidal action in percent) (MATIN [15])

CCCn1nnnc1NC(=O)c1ccc(C(F)F)c(C(=O)C2CC2)c1Cl [3-168]
100%: Pre-emergence action against ALOMY (herbicidal activity in percent) (ALOMY) | Pre-emergence action against AVEFA (herbicidal activity) (AVEFA [1]) | Pre-emergence action against ECHCG (herbicidal activity) (ECHCG [3]) | Pre-emergence action against LOLRI (herbicidal activity) (LOLRI) | SETVI (Table B8, pre-emergence herbicidal activity) (SETVI [4]) | Pre-emergence action against ABUTH (herbicidal activity) (ABUTH [5]) | Pre-emergence action against AMARE (herbicidal activity) (AMARE [6]) | Pre-emergence action against MATIN (MATIN [7]) | Pre-emergence action against PHBPU (PHBPU [8]) | Pre-emergence action against STEME (STEME [9]) | Pre-emergence action against VIOTR (VIOTR [10]) | Pre-emergence action against VERPE (VERPE [11]) | Post-emergence action against ECHCG (herbicidal action in percent) (ECHCG [12]) | Post-emergence action against SETVI (herbicidal action in percent) (SETVI [21]) | Post-emergence action against ABUTH (herbicidal action in percent) (ABUTH [13]) | Post-emergence action against AMARE (herbicidal action in percent) (AMARE [14]) | Post-emergence action against MATIN (herbicidal action in percent) (MATIN [15])
100: Post-emergence action against PHBPU (PHBPU [16]) | Post-emergence action against STEME (STEME [17]) | Post-emergence action against VIOTR (VIOTR [18])
90%: Pre-emergence action against HORMU (HORMU) | Post-emergence action against AVEFA (herbicidal action in percent) (AVEFA [20]) | Post-emergence action against CYPES (herbicidal action in percent) (CYPES [23])
80%: Pre-emergence action against POLCO (POLCO [22])

CCn1nnnc1NC(=O)c1ccc(C(F)F)c(C(C)=O)c1Cl [2-164]
80: Post-emergence action against POLCO (POLCO [24])
100: Post-emergence action against PHBPU (PHBPU [16]) | Post-emergence action against STEME (STEME [17]) | Post-emergence action against VIOTR (VIOTR [18])
100%: Pre-emergence action against ALOMY (herbicidal activity in percent) (ALOMY) | Pre-emergence action against CYPES (herbicidal activity) (CYPES [2]) | Pre-emergence action against ECHCG (herbicidal activity) (ECHCG [3]) | SETVI (Table B8, pre-emergence herbicidal activity) (SETVI [4]) | Pre-emergence action against ABUTH (herbicidal activity) (ABUTH [5]) | Pre-emergence action against AMARE (herbicidal activity) (AMARE [6]) | Pre-emergence action against MATIN (MATIN [7]) | Pre-emergence action against POLCO (POLCO [22]) | Pre-emergence action against STEME (STEME [9]) | Pre-emergence action against VIOTR (VIOTR [10]) | Pre-emergence action against VERPE (VERPE [11]) | Post-emergence action against ECHCG (herbicidal action in percent) (ECHCG [12]) | Post-emergence action against SETVI (herbicidal action in percent) (SETVI [21]) | Post-emergence action against ABUTH (herbicidal action in percent) (ABUTH [13]) | Post-emergence action against AMARE (herbicidal action in percent) (AMARE [14]) | Post-emergence action against MATIN (herbicidal action in percent) (MATIN [15])
90%: Pre-emergence action against AVEFA (herbicidal activity) (AVEFA [1]) | Pre-emergence action against PHBPU (PHBPU [8]) | Post-emergence action against CYPES (herbicidal action in percent) (CYPES [23])
80%: Pre-emergence action against LOLRI (herbicidal activity) (LOLRI) | Pre-emergence action against HORMU (HORMU)
